From patent US8551984B2, “Aminopyrimidines as SYK inhibitors” (Merck Sharp & Dohme Corp., priority 2009, dated 2013) come the findings set out here.

In general, IC50 refers to the concentration at which inhibition is half-maximal.

Where a name gives a salt, the structure may show the parent alone. Some results are limits rather than exact numbers.

The first test addresses recombinant human SYK (GST-hSYK fusion protein) (Homo sapiens, UniProt P43405). Briefly: biochemical. The following applies: rhSYK Activity (IC50), recombinant human GST-SYK 5 pM, ATP 25 μM, biotinylated substrate peptide 250 nM, HTRF, 10-dose titration. Background: Time-resolved FRET reads energy transfer from a long-lived donor to a nearby acceptor.
From the text: Homogeneous Time-Resolved Fluorescence (HTRF) Assay for the Recombinant Human SYK Enzyme:
On to `Cc1cc(Nc2nccc(C(F)(F)F)n2)cc(-c2cnc(CC(C)(C)C(=O)O)s2)c1` [Example 78, 2,2-dimethyl-3-[5-(3-methyl-5-{[4-(trifluoromethyl)pyrimidin-2-yl]amino}phenyl)-1,3-thiazol-2-yl]propanoic acid (potassium salt and TFA salt)], for which the IC50 was less than 100 nM.

For the molecule `CCOC(=O)CCc1ncc(-c2cc(C)cc(Nc3nccc(C(F)(F)F)n3)c2)s1` [Example 79-1, Ethyl 3-[5-(3-methyl-5-{[4-(trifluoromethyl)pyrimidin-2-yl]amino}phenyl)-1,3-thiazol-2-yl]-propanoate], the IC50 is less than 100 nM.

Regarding `Cc1cc(Nc2nccc(C(F)(F)F)n2)cc(-c2cnc(CCC(N)=O)s2)c1` [Example 79-2], the IC50 is less than 100 nM.

Turning to `Cc1cc(Nc2nccc(C(F)(F)F)n2)cc(-c2cnc(CCC(=O)N(C)C)s2)c1` [Example 79-4], the IC50 is less than 100 nM.

Regarding `Cc1cc(Nc2nccc(C(F)(F)F)n2)cc(-c2cnc(CCC(=O)N3CCOCC3)s2)c1` [Example 79-5], the IC50 was less than 100 nM.

`Cc1cc(Nc2nccc(C(F)(F)F)n2)cc(-c2cnc(CCC(=O)NCCO)s2)c1` [Example 79-6]: the IC50 is less than 100 nM.

Take `Cc1cc(Nc2nccc(C(F)(F)F)n2)cc(-c2cnc(CCc3nnco3)s2)c1` [Example 79-7]: the IC50 was less than 100 nM.

Take `Cc1cc(Nc2nccc(C(F)(F)F)n2)cc(-c2cnc(CCc3nnc(C)o3)s2)c1` [Example 79-8]: the IC50 was less than 100 nM.

Take `Cc1cc(Nc2nccc(C(F)(F)F)n2)cc(-c2cnc(CCc3nnc(C4CC4)o3)s2)c1` [Example 79-9]: the IC50 is less than 100 nM.

For `Cc1cc(Nc2nccc(C(F)(F)F)n2)cc(-c2cnc(CC(C)(C)C(N)=O)s2)c1` [Example 79-10], the IC50 was less than 100 nM.

In the case of `Cc1cc(Nc2nccc(C(F)(F)F)n2)cc(-c2cnc(CC(C)(C)C(=O)N(C)C)s2)c1` [Example 79-11], the IC50 is less than 100 nM.

`Cc1cc(Nc2nccc(C(F)(F)F)n2)cc(-c2cnc(CCC(C)(C)O)s2)c1` [Example 80, 2-methyl-4-[5-(3-methyl-5-{[4-(trifluoromethyl)pyrimidin-2-yl]amino}phenyl)-1,3-thiazol-2-yl]butan-2-ol]: the IC50 is less than 100 nM.

Regarding `Cc1cc(Nc2nccc(C(F)(F)F)n2)cc(-c2cnc(C(C)(C)C(=O)OC(C)(C)C)s2)c1` [Example 81, tert-Butyl 2-methyl-2-[5-(3-methyl-5-{[4-(trifluoromethyl)pyrimidin-2-yl]amino}phenyl)-1,3-thiazol-2-yl]propanoate], the IC50 is 100 to 1000 nM.

On to `Cc1cc(Nc2nccc(C(F)(F)F)n2)cc(-c2cnc(C(C)(C)c3nnco3)s2)c1` [Example 82, N-(3-methyl-5-{2-[2-(1,3,4-oxadiazol-2-yl)propan-2-yl]-1,3-thiazol-5-yl}phenyl)-4-(trifluoromethyl)pyrimidin-2-amine], for which the IC50 is less than 100 nM.

Consider `Cc1cc(Nc2nccc(C(F)(F)F)n2)cc(-c2cnc(C3(C(=O)OC(C)(C)C)CC3)s2)c1` [Example 83, tert-butyl 1-[5-(3-methyl-5-{[4-(trifluoromethyl)pyrimidin-2-yl]amino}phenyl)-1,3-thiazol-2-yl]cyclopropanecarboxylate], for which the IC50 lay in the range of 100 to 1000 nM.

As to `Cc1cc(Nc2nccc(C(F)(F)F)n2)cc(-c2cnc(C3(C(=O)O)CC3)s2)c1` [Example 84, 1-[5-(3-methyl-5-{[4-(trifluoromethyl)pyrimidin-2-yl]amino}phenyl)-1,3-thiazol-2-yl]cyclopropanecarboxylic acid (TFA salt)], the IC50 is less than 100 nM.

`Cc1cc(Nc2nccc(C(F)(F)F)n2)cc(-c2cnc(C3(c4nnco4)CC3)s2)c1` [Example 85, N-(3-methyl-5-{2-[1-(1,3,4-oxadiazol-2-yl)cyclopropyl]-1,3-thiazol-5-yl}phenyl)-4-(trifluoromethyl)pyrimidin-2-amine]: the IC50 was less than 100 nM.

For the molecule `Cc1cc(Nc2nccc(C(F)(F)F)n2)cc(-c2cnc(C(C)(C)C(N)=O)s2)c1` [Example 85A-1], the IC50 was less than 100 nM.

With `Cc1cc(Nc2nccc(C(F)(F)F)n2)cc(-c2cnc(C(C)(C)C(=O)N(C)C)s2)c1` [Example 85A-2], the IC50 is less than 100 nM.

On to `Cc1cc(Nc2nccc(C(F)(F)F)n2)cc(-c2cnc(C(C)(C)C(=O)N3CCOCC3)s2)c1` [Example 85A-3], for which the IC50 was less than 100 nM.

Take `Cc1cc(Nc2nccc(C(F)(F)F)n2)cc(-c2cnc(C(C)(C)c3nnc(C)o3)s2)c1` [Example 85A-4]: the IC50 was less than 100 nM.

Take `Cc1cc(Nc2nccc(C(F)(F)F)n2)cc(-c2cnc(C3(C(=O)N(C)C)CC3)s2)c1` [Example 85B-1]: the IC50 is less than 100 nM.

In the case of `CNC(=O)C1(c2ncc(-c3cc(C)cc(Nc4nccc(C(F)(F)F)n4)c3)s2)CC1` [Example 85B-2], the IC50 was less than 100 nM.

On to `Cc1cc(Nc2nccc(C(F)(F)F)n2)cc(-c2cnc(C3(C(N)=O)CC3)s2)c1` [Example 85B-3], for which the IC50 is less than 100 nM.

Consider `Cc1cc(Nc2nccc(C(F)(F)F)n2)cc(-c2cnc(C3(c4nnc(C)o4)CC3)s2)c1` [Example 85B-4], for which the IC50 was less than 100 nM.

On to `Cc1cc(Nc2nccc(C(F)(F)F)n2)cc(-c2cnc(C(=O)O)s2)c1` [Example 86, 5-(3-methyl-5-{[4-(trifluoromethyl)pyrimidin-2-yl]amino}phenyl)-1,3-thiazole-2-carboxylic acid], for which the IC50 is less than 100 nM.

In the case of `Cc1cc(Nc2nccc(C(F)(F)F)n2)cc(-c2cnc(C(=O)NC[C@@H](O)CO)s2)c1` [Example 87, N-[(2R)-2,3-dihydroxypropyl]-5-(3-methyl-5-{[4-(trifluoromethyl)pyrimidin-2-yl]amino}-phenyl)-1,3-thiazole-2-carboxamide], the IC50 is less than 100 nM.

For `Cc1cc(Nc2nccc(C(F)(F)F)n2)cc(-c2cnc(C(=O)NC(C)C)s2)c1` [Example 87A-1], the IC50 fell in the range of 100 to 1000 nM.

For `Cc1cc(Nc2nccc(C(F)(F)F)n2)cc(-c2cnc(C(N)=O)s2)c1` [Example 87A-2], the IC50 was in the range of 100 to 1000 nM.

For `Cc1cc(Nc2nccc(C(F)(F)F)n2)cc(-c2cnc(C(=O)NCCS(C)(=O)=O)s2)c1` [Example 87A-5], the IC50 was less than 100 nM.

Turning to `Cc1cc(Nc2nccc(C(F)(F)F)n2)cc(-c2cnc(C(=O)N(C)CCO)s2)c1` [Example 87A-6], the IC50 is less than 100 nM.

Regarding `Cc1cc(Nc2nccc(C(F)(F)F)n2)cc(-c2cnc(C(=O)NCC(C)O)s2)c1` (centres unmarked) [Example 87A-7], the IC50 was less than 100 nM.

Regarding `Cc1cc(Nc2nccc(C(F)(F)F)n2)cc(-c2cnc(C(=O)NC(C)CO)s2)c1` (centres unmarked) [Example 87A-8], the IC50 was less than 100 nM.

In the case of `Cc1cc(Nc2nccc(C(F)(F)F)n2)cc(-c2cnc(C(=O)NC3(CO)CC3)s2)c1` [Example 87A-9], the IC50 is less than 100 nM.

Regarding `CCC(CO)NC(=O)c1ncc(-c2cc(C)cc(Nc3nccc(C(F)(F)F)n3)c2)s1` (centres unmarked) [Example 87A-10], the IC50 is less than 100 nM.

Still in this test, the particulars now being: rhSYK Activity, Table 63.
On to `Cc1cc(Nc2ncc(F)c(C)n2)cc(-c2cnc(C3(NS(N)(=O)=O)COC3)s2)c1` [Example 63-1], for which the IC50 is less than 100 nM.

On to `COc1nc(Nc2cc(C)cc(-c3cnc(C4(NS(N)(=O)=O)COC4)s3)c2)ncc1Cl` [Example 63-2], for which the IC50 is less than 100 nM.

In the case of `Cc1cc(Nc2nccc(C(F)(F)F)n2)cc(-c2cnc(C3(NS(N)(=O)=O)CCC3)s2)c1` [Example 63-3], the IC50 was less than 100 nM.

Turning to `Cc1cc(Nc2nccc(C(F)(F)F)n2)cc(-c2cnc(C(NS(N)(=O)=O)(C3CC3)C3CC3)s2)c1` [Example 63-4], the IC50 is less than 100 nM.

Staying with this test, now noted: rhSYK Activity, Table 64, first part.
On to `Cc1cc(Nc2nccc(C(F)(F)F)n2)cc(-c2cnc(C3(NC(N)=O)COC3)s2)c1` [Example 64-1], for which the IC50 was less than 100 nM.

Regarding `Cc1cc(Nc2nccc(C3CC3)n2)cc(-c2cnc(C3(NC(N)=O)CCC3)s2)c1` [Example 64-2], the IC50 was less than 100 nM.

As for `Cc1cc(Nc2ncccn2)cc(-c2cnc(C3(NC(N)=O)CCC3)s2)c1` [Example 64-3], the IC50 was less than 100 nM.

For the molecule `Cc1cc(Nc2ncc(F)c(C3CC3)n2)cc(-c2cnc(C3(NC(N)=O)CCC3)s2)c1` [Example 64-6], the IC50 was less than 100 nM.

For `NC(=O)NC1(c2ncc(-c3cc(F)cc(Nc4ncc(F)c(C5CC5)n4)c3)s2)CCC1` [Example 64-7], the IC50 is less than 100 nM.

`COc1nc(Nc2cc(C)cc(-c3cnc(C4(NC(N)=O)CCC4)s3)c2)ncc1Cl` [Example 64-8]: the IC50 is less than 100 nM.

For `Cc1cc(Nc2nccc(C(F)(F)F)n2)cc(-c2cnc(C3(NC(N)=O)CCNC(=O)CC3)s2)c1` (centres unmarked) [Example 64-9], the IC50 is less than 100 nM.

Staying with this test, now noted: rhSYK Activity, Table 64, second part (structure).
For the molecule `Cc1cc(Nc2nccc(C(F)(F)F)n2)cc(-c2cnc(C(NC(N)=O)(C3CC3)C3CC3)s2)c1` [Example 64-10], the IC50 is less than 100 nM.

Staying with this test, now noted: rhSYK Activity, Table 70.
With `Cc1cc(Nc2nccc(C(C)(C)C)n2)cc(-c2cnc(C(C)(C)S(N)(=O)=O)s2)c1` [Example 70-1], the IC50 was less than 100 nM.

For `Cc1cc(Nc2nccc(C(C)C)n2)cc(-c2cnc(C(C)(C)S(N)(=O)=O)s2)c1` [Example 70-2], the IC50 is less than 100 nM.

The test is the same for the next values; noted with them: rhSYK Activity, Table 74B.
In the case of `Cc1cc(Nc2nccc(C(F)(F)F)n2)cc(-c2cnc(C3(S(C)(=O)=O)CCC3)s2)c1` [Example 74B-2], the IC50 was less than 100 nM.

In the case of `CS(=O)(=O)C1(c2ncc(-c3cc(Nc4nccc(C(F)(F)F)n4)cc([N+](=O)[O-])c3)s2)CCC1` [Example 74B-3], the IC50 lay within 1000 to 10000 nM.

`Cc1cc(Nc2nccc(C(F)(F)F)n2)cc(-c2cnc(C3(S(N)(=O)=O)CCC3)s2)c1` [Example 74B-4]: the IC50 is less than 100 nM.

Staying with this test, now noted: rhSYK Activity, table after Example 68.
Turning to `Cc1cc(Nc2ncc(C(=O)O)cn2)cc(-c2cnc(C3(O)CCC3)s2)c1` [Example 68-1], the IC50 lay in the range of 100 to 1000 nM.

For the molecule `OC1(c2ncc(-c3cccc(Nc4nccc(C(F)(F)F)n4)c3)s2)CCC1` [Example 68-2], the half-maximal inhibitory concentration (IC50) was less than 100 nM.

Staying with this test, now noted: rhSYK Activity, table after Example 75.
Turning to `NS(=O)(=O)Cc1ncc(-c2cccc(Nc3nccc(C(F)(F)F)n3)c2)s1` [Example 75-1], the IC50 is less than 100 nM.

`COc1ccnc(Nc2cc(C)cc(-c3cnc(CS(N)(=O)=O)s3)c2)n1` [Example 75-2]: the IC50 is less than 100 nM.
